Reference: patent publication US20150037253A1, “METAL COMPLEXES AS IMAGING AGENTS” (The University of Melbourne, priority 2011, published 2015)
Blank lines part the entries; values can stand above or below the molecule they belong to.

Columns and labels:
[1] = Cyclic voltammetry, Cu(II)/Cu(I) reduction potential; format: physicochemical; conditions: vs. SCE, in DMF, glassy carbon electrode
Experimental: Cyclic voltammograms were recorded using an AUTOLAB PGSTAT100 equipped with GPES V4.9 software. Measurements of the complexes were carried out at approximately 1×10^−3 M in dimethylformamide with tetrabutylammonium tetrafluoroborate (1×10^−1 M) as electrolyte using a glassy carbon disk (d, 3 mm) working electrode, a Pt wire counter/auxiliary electrode, and a Ag/Ag^+ pseudo reference electrode (silver wire in H2O (KCl (0.1 M)) AgNO3 (0.01 M)). Ferrocene was used as an internal reference (Em(Fc/Fc^+)=0.54 V vs. SCE), where Em refers to the midpoint between a reversible reductive (Epc) and oxidative (Epa) couple, given by Em=(Epc+Epa)/2. Irreversible systems are only given reductive (Epc) and oxidative (Epa) values, respectively.

[2] = tested on: Aβ plaques; experiment: Fluorescence staining of human AD brain tissue sections, co-localisation with 1E8 immunostaining; format: binding; conditions: post-mortem AD human brain, 7 μm serial sections, BSA pre-treated
Text: Fluorescence Staining of Human AD Brain. Tissues(^10) Paraffin preserved brain tissue blocks were provided by the Victoria Brain Bank Network. Brain tissue was collected at autopsy. The National Neural Tissue Resource Centre performed Sourcing and preparation of human brain tissue. AD pathologic diagnosis was made according to standard National Institute on Aging-Reagan Institute criteria. Determination of age-matched Human control (HC) cases was subject to the above criteria. The AD and HC brain tissues sections ([…]) were first de-paraffined (xylene, 3×2 min) followed by rehydration (soaking in a series of 100%, 90%, 70% and 0% v/v ethanol/di water). The hydrated tissue sections were washed in phosphate buffer saline (PBS, 5 min). Auto-fluorescence of the tissue was quenched using potassium permanganate (0.25% in PBS, 20 min) and washing with PBS (2×2 min) to remove the excess. […] Finally, the sections were washed with PBS (3×2 min), di water and mounted with non-fluorescent mounting media (Dako), Fluorescence images were visualised using a Leica (Bannockburn, Ill.) DM1RB microscope. […] The tissue was subsequently examined by fluorescent microscopy (epi-fluorescence, λex=420 nm, λex=470 nm) and compared to a sequential brain tissue cross section immunostained with an Aβ antibody (1 E8). […]

[3] = Partition coefficients (Log D) for 64Cu complexes; format: physicochemical; conditions: 64Cu complex of the listed ligand

reduction potential Em (Cu^II/Cu^I couple) [1]: −0.59 V
SMILES: CN=C([S-])N/N=C(C)/C(C)=N/NC([S-])=NC.[Cu+2] [CuII (atsm)]

binding to Aβ plaques (co-localisation of epi-fluorescence with 1E8 antibody immunostaining) [2]: binding selectively to Aβ plaques
SMILES: CC(=N\NC(=S)NCCN(C)C)/C(C)=N/Nc1ccc(/C=C/c2ccc(N(C)C)cc2)cn1 [Example H2L3, Diacetyl-2-((E)-2-hydrazino-pyridinyl-4-(4′-N,N-dimethylaminostilbene))-(4-dimethylaminoethyl-3-thiosemicarbazone)]

Log D of complex [3]: 1.48
SMILES: CNC(S)=NN=C(C)C(C)=NN=C(S)NC [atsmH2a]
